How the values were obtained:
[1] = tested on: Erysiphe graminis; experiment: Activity against Erysiphe graminis in barley (residual-protective and systemic action); assay type: in vivo; settings: mixture of the labelled component I with component II; barley; a) spray 0.02% of active ingredient, b) 0.002% based on soil volume; assessed 12 days after infection
Description: The infected plants are placed in a greenhouse at 22°. The fungus infestation is assessed 12 days after the infection. […] 48 hours later, the plants are dusted with conidia of the fungus. The infected plants are placed in a greenhouse at 22°. The fungus infestation is assessed 12 days after the infection.

[2] = tested on: Phytophthora; settings: mixture of the labelled component I, in particular in combination with metalaxyl (II A), benalaxyl (II D) or R-metalaxyl (II B); potato (Bintje); a) spray 0.02% of active ingredient, b) 0.002% based on soil volume; 5 days incubation
Description: 2-3 week old potato plants (Bintje variety) are grown for 3 weeks and then sprayed with a spray mixture (0.02% of active ingredient) prepared with a wettable powder of the active ingredient. After 24 hours, the treated plants are infected with a sporangia suspension of the fungus. The fungus infestation is assessed after the infected plants have been incubated for 5 days at a relative atmospheric humidity of 90-100% and 20° C.
A spray mixture (0.002% of active ingredient based on the soil volume) prepared with a wettable powder of the active ingredient is poured next to 2-3 week old potato plants (Bintje variety) which have been grown for 3 weeks. […] After 48 hours, the treated plants are infected with a sporangia suspension of the fungus. Fungus infestation is assessed after the infected plants have been incubated for 5 days at a relative atmospheric humidity of 90-100% and 20° C.

[3] = tested on: Plasmopara viticola; experiment: Activity against Plasmopara viticola in grapevines; settings: mixture of the labelled component I with component II = ofurace (II E), oxadixyl (II F), or in particular metalaxyl (II A) or R-metalaxyl (II B); grapevine seedlings; 0.02% of active ingredient; assessed 6 days after infection
Description: Grapevine seedlings at the 4-to-5-leaf stage are sprayed to drip point with an aqueous spray mixture prepared with a wettable powder of the active ingredient mixture (0.02% of active ingredient) and, 24 hours later, infected with a sporangia suspension of the fungus. The fungus infestation is assessed 6 days after infection, during which time a relative atmospheric humidity of 95 to 100% and a temperature of 20° are maintained.

[4] = tested on: Puccinia recondita; experiment: Activity against Puccinia recondita in wheat (residual-protective and systemic action); assay type: in vivo; settings: mixture of the labelled component I with component II; wheat; a) spray 0.02% of active ingredient, b) 0.006% based on soil volume; assessed 12 days after infection
[5] = tested on: Fusarium nivale; experiment: Activity against Fusarium nivale in rye (seed dressing, field); assay type: in vivo; settings: mixture of the labelled component I with component II, rye cv. Tetrahell seed dressing, 20 or 6 ppm of a.i. based on seed weight
Description: which has been infected naturally with Fusarium nivale is dressed with the test fungicide in a roller mixer, the following concentrations being used: 20 or 6 ppm of a.i. (based on the seed weight). The infected and treated rye is sown in the open in October in plots of 3 m length and 6 seed rows, using a seed drill. 3 replications per concentration. Until the disease level is evaluated, the experimental field is subjected to the field conditions of normal crop management (preferably in a region with unbroken snow cover during the winter months). To assess the phytotoxicity, seedling emergence is scored in autumn and plant density/tillering in spring. To assess the activity of the active ingredient, the percentage of Fusarium-infected plants is evaluated early in the year, immediately after the snows have melted.

[6] = tested on: Botrytis cinerea; experiment: Activity against Botrytis cinerea on apple fruits (residual-protective action); assay type: in vivo; settings: mixture of the labelled component I with component II = furalaxyl (II C), metalaxyl (II A) or R-metalaxyl (II B); damaged apples; 0.02% of active ingredient; one week incubation
Description: The treated fruits are subsequently inoculated with a spore suspension of the fungus and incubated for one week at high atmospheric humidity and approximately 20° C. The fungicidal activity of the test substance is deduced from the number of the sites of damage where rotting has been observed.

[7] = tested on: Phytophthora infestans; assay type: in vivo; settings: mixture of the labelled component I with component II = oxadixyl (II F), ofurace (II E), or in particular metalaxyl (II A) or R-metalaxyl (II B); tomato cv. Roter Gnom; a) curative 200 ppm, b) preventive-systemic 60 ppm relative to soil volume
[8] = tested on: Cercospora arachidicola; experiment: Residual-protective action against Cercospora arachidicola in groundnuts; assay type: in vivo; settings: mixture of the labelled component I with component II; groundnut plants; 0.02% of active ingredient; assessed 12 days after infection
Description: The plants are incubated for 72 hours at 21° and high atmospheric humidity and subsequently placed in a greenhouse until the typical foliar lesions appear. The activity of the active ingredient is assessed 12 days after the infection on the basis of number and size of the foliar lesions.

[9] = tested on: Septoria nodorum; experiment: Activity against Septoria nodorum in wheat; assay type: in vivo; settings: mixture of the labelled component I with component II; wheat 3-leaf stage; 60 ppm of a.i.; assessed 13 days after infection
Description: 13 days after the infection, the fungus infestation is assessed.

SMILES | synergistic effect of active ingredient mixture (fungus infestation) [1] | synergistic effect of active ingredient mixture (fungus infestation) [2] | synergistic effect of active ingredient mixture (fungus infestation) [3] | synergistic effect of active ingredient mixture (fungus infestation) [4] | synergistic effect of active ingredient mixture (percentage of Fusarium-infected plants) [5] | activity of active ingredient mixture (number of sites of damage with rotting) [6] | synergistic effect of active ingredient mixture (number and size of foliar lesions) [7] | activity of active ingredient mixture (number and size of foliar lesions) [8] | activity of active ingredient mixture (fungus infestation) [9]
CON=C(C(=O)OC)c1ccccc1CON=C(C)c1ccc2c(c1)OC(F)(F)O2 [(6), methyl 2-[α-{[(α-methyl-3,4-(difluoromethylenedioxy)benzyl)imino]-oxy}-o-tolyl]glyoxylate O-methyloxime] | good synergistic effect | good synergistic effect | marked synergistic effect | good synergistic effect | good synergistic effect |  |  |  | 
CON=C(C(=O)OC)c1ccccc1CON=C(c1ccc(F)cc1)C1CC1 [(09), methyl 2-[α-{[(α-cyclopropyl-4-fluorobenzyl)imino]oxy}-o-tolyl]glyoxylate O-methyloxime] | good synergistic effect |  |  | good synergistic effect |  | markedly increased activity |  |  | 
COC=C(C(=O)OC)c1ccccc1CON=C(C)c1ccc2c(c1)OCO2 [(12), methyl 3-methoxy-2-[α-{[(α-methyl-3,4-methylenedioxybenzyl)imino]oxy}-o-tolyl]acrylate] |  | good synergistic effect | marked synergistic effect |  |  |  | good synergistic effect |  | 
CON=C(C(=O)OC)c1ccccc1CON=C(c1ccc(Cl)cc1)C1CC1 [(15), methyl 2-[α-{[(α-cyclopropyl-4-chlorobenzyl)imino]oxy}-o-tolyl]glyoxylate O-methyloxime] | good synergistic effect | good synergistic effect | marked synergistic effect | good synergistic effect |  | markedly increased activity | good synergistic effect | markedly increased activity | 
COC=C(C(=O)OC)c1ccccc1CON=C(C)c1cccc(OC(F)(F)F)c1 [(18), methyl 3-methoxy-2-[α-{[(α-methyl-3-trifluoromethoxybenzyl)imino]oxy}-o-tolyl]acrylate] | good synergistic effect | good synergistic effect | marked synergistic effect | good synergistic effect | good synergistic effect | markedly increased activity |  | markedly increased activity | 
COC=C(C(=O)OC)c1ccccc1CON=C(C)c1cccc(C(F)(F)F)c1 [(24), methyl 3-methoxy-2-[α-{[(α-methyl-3-trifluoromethylbenzyl)imino]oxy}-o-tolyl]acrylate] | good synergistic effect | good synergistic effect |  |  |  | markedly increased activity | good synergistic effect | markedly increased activity | markedly increased activity
CON=C(C(=O)OC)c1ccccc1CON=C(C)c1ccc(Cl)cc1 [(25), methyl 2-[α-{[(α-methyl-4-chlorobenzyl)imino]oxy}-o-tolyl]glyoxylate O-methyloxime] | good synergistic effect |  |  |  |  |  |  |  | markedly increased activity
COC=C(C(=O)OC)c1ccccc1CON=C(C)c1ccc(Cl)cc1 [(26), methyl 3-methoxy-2-[α-{[(α-methyl-4-chlorobenzyl)imino]oxy}-o-tolyl]acrylate] |  |  |  |  | good synergistic effect |  |  | markedly increased activity | 
COC=C(C(=O)OC)c1ccccc1CON=C(C)c1ccc2c(c1)OC(F)(F)O2 [(29), methyl 3-methoxy-2-[α-{[(α-methyl-3,4-(difluoromethylenedioxy)benzyl)-imino]oxy}-o-tolyl]acrylate] |  |  |  | good synergistic effect |  |  |  |  | 
CON=C(C(=O)OC)c1ccccc1CON=C(C)c1cccc(OC(F)(F)F)c1 [(32), methyl 2-[α-{[(α-methyl-3-trifluoromethoxybenzyl)imino]oxy}-o-tolyl]glyoxylate O-methyloxime] | good synergistic effect | good synergistic effect | marked synergistic effect | good synergistic effect | good synergistic effect | markedly increased activity | good synergistic effect | markedly increased activity | markedly increased activity
CON=C(C(=O)OC)c1ccccc1CON=C(C)c1cccc(C(F)(F)F)c1 [(35), methyl 2-[α-{[(α-methyl-3-trifluoromethylbenzyl)imino]oxy}-o-tolyl]glyoxylate O-methyloxime] | good synergistic effect | good synergistic effect | marked synergistic effect | good synergistic effect |  | markedly increased activity | good synergistic effect |  | markedly increased activity
COC=C(C(=O)OC)c1ccccc1CON=C(c1ccc(Cl)cc1)C1CC1 [(36), methyl 3-methoxy-2-[α-{[(α-cyclopropyl-4-chlorobenzyl)imino]oxy}-o-tolyl]acrylate] | good synergistic effect |  |  |  |  | markedly increased activity | good synergistic effect | markedly increased activity | markedly increased activity
CON=C(C(=O)OC)c1ccccc1CON=C(c1ccc(C(F)(F)F)cc1)C1CC1 [(37)] | good synergistic effect |  |  |  |  |  |  |  | 
CON=C(C(=O)OC)c1ccccc1CON=C(c1ccc(OC(F)(F)F)cc1)C1CC1 [(38), methyl 2-[α-{[(α-cyclopropyl-4-trifluoromethoxybenzyl)imino]oxy}-o-tolyl]glyoxylate O-methyloxime] |  |  |  |  | good synergistic effect |  |  | markedly increased activity | 
